# Tested on: H. influenza Hi4 efflux pump KO
# Assay: Antibacterial activity assay (MIC), H. influenza Hi4
# Type: cell-based
Compound,MIC Hi4 efflux pump KO [µg/mL],MIC [µg/mL]
8-O-4-Bromo-5-Chloro-1H-pyrrole-2′-carbonylbranimycin [Compound 35],16,
8-O-5-Bromo-4-Chloro-1H-pyrrole-2′-carbonylbranimycin [Compound 33],16,
"COC[C@H]1[C@@H](O)[C@@H]2O[C@@]34/C(C)=C/[C@@H](C)[C@@H]([C@H](O)COC)OC(=O)[C@H](COC)[C@H]3C=C[C@@H]2[C@H]4[C@@H]1O [Branimycin, reference compound]",,4
"COC[C@@H](O)[C@H]1OC(=O)[C@H](COC)[C@H]2C=C[C@H]3[C@H]4O[C@]2(/C(C)=C/[C@H]1C)[C@@H]3[C@H](O)[C@@H](C)[C@H]4O [Compound 1, Baleomycin]",,2
"COC[C@@H]1[C@@H](O)[C@@H]2[C@H]3C=C[C@@H]4[C@@H](COC)C(=O)O[C@H]([C@H](O)COC)[C@H](C)/C=C(\C)[C@@]24O[C@H]3[C@@H]1OC(=O)c1ccc[nH]1 [Compound 2, 8-O-1H-pyrrole-2′-carbonylbranimycin]",,4
"COC[C@@H](O)[C@H]1OC(=O)[C@H](COC)[C@H]2C=C[C@H]3[C@H]4O[C@]2(/C(C)=C/[C@H]1C)[C@@H]3[C@H](O)[C@@H](C)[C@H]4OC(=O)c1ccc[nH]1 [Compound 3, 8-O-1H-pyrrole-2′-carbonylbaleomycin]",,1
"COCC[C@H]1OC(=O)[C@H](COC)[C@H]2C=C[C@H]3[C@H]4O[C@]2(/C(C)=C/[C@H]1C)[C@@H]3[C@H](O)[C@@H](COC)[C@H]4OC(=O)c1ccc[nH]1 [Compound 4, 17-Deoxy-8-O-1H-pyrrole-2′-carbonylbranimycin]",,16
"COC[C@@H]1[C@@H](O)[C@@H]2[C@H]3C=C[C@@H]4[C@@H](COC)C(=O)O[C@H]([C@H](O)COC)[C@H](C)/C=C(\C)[C@@]24O[C@H]3[C@@H]1OC(=O)c1ccoc1 [Compound 5, 8-O-Furane-3′-carbonylbranimycin]",,8
"COC[C@@H]1[C@@H](O)[C@@H]2[C@H]3C=C[C@@H]4[C@@H](COC)C(=O)O[C@H]([C@H](O)COC)[C@H](C)/C=C(\C)[C@@]24O[C@H]3[C@@H]1OC(=O)c1ccc(C)[nH]1 [Compound 6, 8-O-5-Methyl-1H-pyrrole-2′-carbonylbranimycin]",,32
"COC[C@@H](O)[C@H]1OC(=O)[C@H](COC)[C@H]2C=C[C@H]3[C@H]4O[C@]2(/C(C)=C/[C@H]1C)[C@@H]3[C@H](O)[C@@H](C)[C@H]4OC(=O)c1ccoc1 [Compound 7, 8-O-Furane-3′-carbonylbaleomycin]",,0.5
"COC[C@@H]1[C@@H](O)[C@@H]2[C@H]3C=C[C@@H]4[C@@H](COC)C(=O)O[C@H]([C@H](O)COC)[C@H](C)/C=C(\C)[C@@]24O[C@H]3[C@@H]1OC(=O)c1cocn1 [Compound 8, 8-O-Oxazole-4′-carbonylbranimycin]",,> 64
"COC[C@@H]1[C@@H](O)[C@@H]2[C@H]3C=C[C@@H]4[C@@H](COC)C(=O)O[C@H]([C@H](O)COC)[C@H](C)/C=C(\C)[C@@]24O[C@H]3[C@@H]1OC(=O)c1ccsc1 [Compound 9, 8-O-Thiophene-3′-carbonylbranimycin]",,16
"COC[C@@H]1[C@@H](O)[C@@H]2[C@H]3C=C[C@@H]4[C@@H](COC)C(=O)O[C@H]([C@H](O)COC)[C@H](C)/C=C(\C)[C@@]24O[C@H]3[C@@H]1OC(=O)c1cc[nH]n1 [Compound 10, 8-O-1H-Pyrazole-3′-carbonylbranimycin]",,32
"COC[C@@H]1[C@@H](O)[C@@H]2[C@H]3C=C[C@@H]4[C@@H](COC)C(=O)O[C@H]([C@H](O)COC)[C@H](C)/C=C(\C)[C@@]24O[C@H]3[C@@H]1OC(=O)c1ccoc1C [Compound 11, 8-O-2-Methylfurane-3′-carbonylbranimycin]",,32
"COC[C@@H]1[C@@H](O)[C@@H]2[C@H]3C=C[C@@H]4[C@@H](COC)C(=O)O[C@H]([C@H](O)COC)[C@H](C)/C=C(\C)[C@@]24O[C@H]3[C@@H]1OC(=O)c1cc(C)c[nH]1 [Compound 12, 8-O-4-Methyl-1H-pyrrole-2′-carbonylbranimycin]",,4
